Experimental data: paper PMC10046369, “Low-Affinity/High-Selectivity Dopamine Transport Inhibition Sufficient to Rescue Cognitive Functions in the Aging Rat” (Biomolecules, 2023)

Experiments:
Assay in all cases: biochemical
Set-up in all cases: KINOMEscan competition binding panel, per cent of control
Details in all cases: read-out: %Ctrl @ 2800nM
TLK2 = TLK2 (Homo sapiens, UniProt Q86UE8)
Method in brief: (§1)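 Values are expressed as percent of control, calculated as ((test − positive control)/(negative control − positive control)) × 100, so lower numbers mean stronger hits. Binding was measured by KINOMEscan competition assay in a 450-kinase human panel including disease mutants, using the contractor's validated protocol.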

DCAMKL1 = molecular target: T1, DCAMKL1 (Homo sapiens, UniProt O15075)
T1 construct: gene DCLK1
T1 sequence (O15075 whole entry): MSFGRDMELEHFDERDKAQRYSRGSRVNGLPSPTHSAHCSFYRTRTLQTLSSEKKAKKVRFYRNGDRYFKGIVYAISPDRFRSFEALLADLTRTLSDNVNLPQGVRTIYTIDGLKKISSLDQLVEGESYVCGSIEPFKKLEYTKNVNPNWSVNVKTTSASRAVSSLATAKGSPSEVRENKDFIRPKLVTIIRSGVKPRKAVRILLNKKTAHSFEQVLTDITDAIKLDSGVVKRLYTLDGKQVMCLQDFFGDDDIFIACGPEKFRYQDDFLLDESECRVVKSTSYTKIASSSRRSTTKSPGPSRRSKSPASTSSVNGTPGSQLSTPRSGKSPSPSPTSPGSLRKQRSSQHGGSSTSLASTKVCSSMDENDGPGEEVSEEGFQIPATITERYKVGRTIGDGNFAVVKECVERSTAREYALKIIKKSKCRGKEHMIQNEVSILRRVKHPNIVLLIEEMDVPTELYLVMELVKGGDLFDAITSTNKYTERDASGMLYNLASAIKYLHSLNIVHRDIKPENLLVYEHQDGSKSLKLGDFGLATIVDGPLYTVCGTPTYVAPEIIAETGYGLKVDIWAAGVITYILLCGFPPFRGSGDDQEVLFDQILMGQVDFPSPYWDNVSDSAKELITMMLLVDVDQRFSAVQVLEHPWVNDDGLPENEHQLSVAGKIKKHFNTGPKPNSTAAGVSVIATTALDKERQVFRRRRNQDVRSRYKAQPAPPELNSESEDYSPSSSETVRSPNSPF
Method in brief: as §1

BRAF = BRAF (Homo sapiens, UniProt P15056)
Sequence of BRAF (P15056 whole entry): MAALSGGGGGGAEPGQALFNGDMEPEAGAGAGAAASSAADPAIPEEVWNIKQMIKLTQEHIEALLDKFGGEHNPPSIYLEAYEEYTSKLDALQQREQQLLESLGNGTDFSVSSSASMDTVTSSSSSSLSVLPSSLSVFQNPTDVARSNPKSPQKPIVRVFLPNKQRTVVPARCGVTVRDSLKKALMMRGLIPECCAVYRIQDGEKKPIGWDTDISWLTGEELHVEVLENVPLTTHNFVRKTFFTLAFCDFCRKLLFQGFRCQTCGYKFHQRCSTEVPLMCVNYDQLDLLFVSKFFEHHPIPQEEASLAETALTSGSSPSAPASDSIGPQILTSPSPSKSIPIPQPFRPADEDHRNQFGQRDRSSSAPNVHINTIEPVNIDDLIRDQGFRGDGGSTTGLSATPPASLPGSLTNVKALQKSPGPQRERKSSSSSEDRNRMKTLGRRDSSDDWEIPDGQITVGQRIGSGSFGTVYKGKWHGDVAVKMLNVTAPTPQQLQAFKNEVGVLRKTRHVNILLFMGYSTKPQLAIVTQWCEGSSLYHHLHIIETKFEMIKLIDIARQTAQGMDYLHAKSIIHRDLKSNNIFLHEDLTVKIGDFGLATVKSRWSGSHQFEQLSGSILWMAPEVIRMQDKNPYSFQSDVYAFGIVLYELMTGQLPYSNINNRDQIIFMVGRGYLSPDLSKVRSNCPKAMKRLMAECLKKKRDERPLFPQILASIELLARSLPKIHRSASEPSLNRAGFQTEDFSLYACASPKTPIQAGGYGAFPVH
Method in brief: as §1

[1] = molecular target: T2, ABL1(F317I)-nonphosphorylated (Homo sapiens, UniProt P00519, F317I)
T2 construct: nonphosphorylated
T2 sequence (P00519 whole entry F317I): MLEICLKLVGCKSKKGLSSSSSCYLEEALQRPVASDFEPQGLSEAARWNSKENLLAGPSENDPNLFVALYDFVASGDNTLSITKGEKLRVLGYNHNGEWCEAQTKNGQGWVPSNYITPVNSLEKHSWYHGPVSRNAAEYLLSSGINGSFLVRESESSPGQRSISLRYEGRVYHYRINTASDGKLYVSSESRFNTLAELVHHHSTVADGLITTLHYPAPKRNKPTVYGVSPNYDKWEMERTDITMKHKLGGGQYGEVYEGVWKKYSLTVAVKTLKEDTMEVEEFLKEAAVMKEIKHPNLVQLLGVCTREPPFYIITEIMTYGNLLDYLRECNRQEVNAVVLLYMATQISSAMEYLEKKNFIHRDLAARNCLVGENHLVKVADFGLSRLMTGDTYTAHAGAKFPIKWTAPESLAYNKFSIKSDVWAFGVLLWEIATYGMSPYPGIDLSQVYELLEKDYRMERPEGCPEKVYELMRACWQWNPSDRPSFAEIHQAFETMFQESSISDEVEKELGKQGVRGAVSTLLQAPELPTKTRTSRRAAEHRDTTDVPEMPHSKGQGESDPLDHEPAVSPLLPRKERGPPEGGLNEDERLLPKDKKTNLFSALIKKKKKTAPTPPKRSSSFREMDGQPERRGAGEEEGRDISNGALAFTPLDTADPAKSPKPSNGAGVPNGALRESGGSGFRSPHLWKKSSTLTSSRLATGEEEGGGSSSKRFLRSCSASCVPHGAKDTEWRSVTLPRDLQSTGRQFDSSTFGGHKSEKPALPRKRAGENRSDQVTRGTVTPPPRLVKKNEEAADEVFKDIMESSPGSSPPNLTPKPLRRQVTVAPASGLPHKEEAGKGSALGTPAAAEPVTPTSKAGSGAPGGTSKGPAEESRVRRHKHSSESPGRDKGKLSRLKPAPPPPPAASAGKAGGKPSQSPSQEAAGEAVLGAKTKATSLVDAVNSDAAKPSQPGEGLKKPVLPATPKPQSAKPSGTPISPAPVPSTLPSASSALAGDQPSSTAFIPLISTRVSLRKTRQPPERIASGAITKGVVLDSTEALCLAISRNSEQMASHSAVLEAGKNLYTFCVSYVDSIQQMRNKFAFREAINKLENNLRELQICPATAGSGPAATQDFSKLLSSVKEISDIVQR
Method in brief: as §1

MST3 = molecular target: T3, MST3 (Homo sapiens, UniProt Q9Y6E0)
T3 construct: gene STK24
T3 sequence (Q9Y6E0 whole entry): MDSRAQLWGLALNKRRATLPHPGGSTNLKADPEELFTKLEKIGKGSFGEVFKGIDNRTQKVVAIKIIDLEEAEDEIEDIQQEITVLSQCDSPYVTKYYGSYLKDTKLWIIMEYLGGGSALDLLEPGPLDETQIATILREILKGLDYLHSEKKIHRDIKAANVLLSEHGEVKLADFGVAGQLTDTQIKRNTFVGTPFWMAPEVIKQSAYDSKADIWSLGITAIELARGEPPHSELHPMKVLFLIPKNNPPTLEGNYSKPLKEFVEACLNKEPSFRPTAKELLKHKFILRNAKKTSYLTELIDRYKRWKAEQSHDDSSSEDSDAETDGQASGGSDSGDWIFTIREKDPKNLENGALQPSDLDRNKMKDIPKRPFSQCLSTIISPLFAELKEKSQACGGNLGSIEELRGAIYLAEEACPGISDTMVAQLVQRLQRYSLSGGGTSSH
Method in brief: as §1

LIMK1 = LIMK1 (Homo sapiens, UniProt P53667)
Sequence of LIMK1 (P53667 whole entry): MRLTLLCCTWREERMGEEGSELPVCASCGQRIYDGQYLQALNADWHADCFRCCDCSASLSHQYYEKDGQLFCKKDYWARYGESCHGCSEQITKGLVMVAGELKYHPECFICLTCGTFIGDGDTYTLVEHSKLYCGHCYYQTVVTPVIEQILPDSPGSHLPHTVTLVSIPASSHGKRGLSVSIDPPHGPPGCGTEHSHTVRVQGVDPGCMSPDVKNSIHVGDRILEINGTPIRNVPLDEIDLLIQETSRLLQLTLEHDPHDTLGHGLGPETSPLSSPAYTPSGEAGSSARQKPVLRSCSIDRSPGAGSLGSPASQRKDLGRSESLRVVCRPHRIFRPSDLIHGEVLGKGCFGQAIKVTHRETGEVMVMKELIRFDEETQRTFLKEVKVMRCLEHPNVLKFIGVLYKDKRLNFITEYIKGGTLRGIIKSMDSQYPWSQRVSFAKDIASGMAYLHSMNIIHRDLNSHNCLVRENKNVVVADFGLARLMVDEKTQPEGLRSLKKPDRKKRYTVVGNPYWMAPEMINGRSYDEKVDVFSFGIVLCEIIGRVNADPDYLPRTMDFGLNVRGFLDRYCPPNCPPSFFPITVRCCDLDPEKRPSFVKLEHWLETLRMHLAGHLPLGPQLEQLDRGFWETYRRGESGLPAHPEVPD
Method in brief: as §1

Sequence of TLK2 (Q86UE8 whole entry): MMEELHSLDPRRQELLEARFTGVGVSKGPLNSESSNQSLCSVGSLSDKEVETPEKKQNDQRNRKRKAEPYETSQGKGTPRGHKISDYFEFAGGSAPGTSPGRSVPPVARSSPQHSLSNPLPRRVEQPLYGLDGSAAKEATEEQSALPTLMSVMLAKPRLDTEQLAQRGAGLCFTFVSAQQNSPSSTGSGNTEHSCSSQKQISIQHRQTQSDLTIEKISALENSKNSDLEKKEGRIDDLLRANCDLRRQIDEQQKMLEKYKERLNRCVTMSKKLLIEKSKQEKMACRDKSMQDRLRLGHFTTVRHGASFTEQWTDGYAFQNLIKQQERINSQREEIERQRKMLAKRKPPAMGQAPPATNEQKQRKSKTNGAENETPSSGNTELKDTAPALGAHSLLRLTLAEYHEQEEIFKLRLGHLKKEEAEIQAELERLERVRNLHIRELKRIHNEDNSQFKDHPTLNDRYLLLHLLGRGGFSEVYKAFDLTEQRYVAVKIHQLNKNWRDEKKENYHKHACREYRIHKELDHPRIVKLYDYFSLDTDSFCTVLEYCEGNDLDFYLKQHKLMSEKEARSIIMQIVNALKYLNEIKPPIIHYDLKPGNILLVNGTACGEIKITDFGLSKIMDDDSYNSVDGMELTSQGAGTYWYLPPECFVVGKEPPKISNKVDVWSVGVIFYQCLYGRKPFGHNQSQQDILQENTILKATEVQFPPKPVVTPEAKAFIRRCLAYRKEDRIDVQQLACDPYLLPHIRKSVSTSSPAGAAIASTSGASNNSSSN

SMILES: [O-][S@@+](Cc1cncs1)C(c1ccccc1)c1ccccc1 [S-CE-123, (S)-5-((Benzhydrylsulfinyl)Methyl)Thiazole]
- remaining binding at 2.8 µM (TLK2): 95%
- remaining binding at 2.8 µM (DCAMKL1): 100%
- remaining binding at 2.8 µM (BRAF): 100%
- remaining binding at 2.8 µM [1]: 100%
- remaining binding at 2.8 µM (MST3): 87%
- remaining binding at 2.8 µM (LIMK1): 98%
